Reference: patent US9402925B2, “Probes and methods of imaging a bacterial infection” (The Board of Trustees of the Leland Stanford Junior …, priority 2013, dated 2016)
“Also recorded” adds a separate entry of the source. Like-named read-outs stand apart in the source and are kept apart here. One block for each compound: values may come before it.

Assays:
E-.Coli (ATCC33456) [1] = assay: Competition assay: blocking of 18F-fluoromaltose uptake in E. coli by co-incubation; assay type: cell-based, Escherichia coli; conditions: co-incubation with 1 mM
Method: (§1) A strain of E-.Coli (ATCC33456) and a mammalian cell line (EL4) were exposed to 1-[^18F]-fluoromaltose or [^18F]-6-fluoromaltose. All bacteria and cells were then washed in 1×PBS, lysed and radioactivity of each well was determined by gamma counter for ^18F samples. All results were done in triplicate and are expressed in counts per minute (CPM), standard errors were determined and t tests performed. The uptake in E. Coli could also be blocked by co-incubation with 1 mM of cold maltose or 1 mM of 1-fluoromaltose.
(§2) To evaluate the ability of bacteria and cells to uptake [^18F]-6-fluoromaltose (7) and 1-[^18F]-fluoromaltose (11), a strain of E. Coli and a mammalian cell line (EL4) were exposed to 7 and 11. […] The uptake in E. Coli could also be blocked by co-incubation with 1 mM of cold maltose (98% blocking, p<0.0003), the natural substrate of the transporter. Likewise, ^3H-maltose uptake in E. Coli was blocked both with 1 mM maltose and 1-fluoromaltose (FIG. 2.4).

Escherichia coli = assay: Competition assay: blocking of 3H-maltose uptake by E. coli; assay type: cell-based; conditions: co-incubation, 1 mM; 3H-labeled maltose uptake for 10 mins; FIG. 2.4
Method: Coli and a mammalian cell line (EL4) were exposed to [^18F] 7. […] 7 by E. […] The uptake in E. Coli could also be blocked by co-incubation with 1 mM of cold maltose (98% blocking, p<0.0003), the natural substrate of the transporter. […] Here we allowed bacteria to take up ^3H-labeled maltose for 10 mins.

[2] = In vivo stability of 1-[18F]fluoromaltose
[3] = PBS, human and mouse serum at 37° C.
Method: Serum (human or mouse) was centrifuged at about 4° C., maximum speed for about 10 min. About 330 μL of supernatant was transferred to an Eppendorf vial containing 20 μL of formulated radiolabelled 6-[^18F]fluoromaltose (50-100 μCi minimum). For control, same volume of radiolabelled compound in 330 μl PBS was used. After vortexing the radiolabelled mixtures, 70 μL aliquots transferred to Eppendorf tubes and incubated at about 37° C. At predetermine time points (e.g., 0, 5, 15, 30, 60 min) 140 μL of ice-cold methanol were added to corresponding samples to stop metabolism. After vortexing and centrifuging samples (10 min max speed), the supernatants were transferred to HPLC vials for HPLC analysis.
The percentage of intact 6-[^18F]fluoromaltose in PBS, human and mouse serum at 37° C. was determined by HPLC.

E-.Coli (ATCC33456) [4] = assay: In vitro uptake assay in E. coli; assay type: cell-based, Escherichia coli; conditions: radioactivity by gamma counter, CPM, FIG. 2.3
Method: as §1, §2

[5] = system: mammalian cell line (EL4); assay: In vitro uptake assay in mammalian cell line EL4; assay type: cell-based; conditions: 60 minutes post incubation with tracer
Method: as §1, §2

Compound: OC[C@H]1O[C@H](O[C@H]2[C@H](O)[C@@H](O)C(F)O[C@@H]2CO)[C@H](O)[C@@H](O)[C@@H]1O (stereo partly drawn) [1-fluoromaltose]
blocking of 18F-fluoromaltose uptake in E. Coli (E-.Coli (ATCC33456) [1]): blocked | blocking of 3H-maltose uptake in E. Coli (Escherichia coli): completely blocked; also recorded: effectively compete

uptake of [18F]fluoride ion by the bones ([2]; after de-fluorination): very high
Compound: OC[C@H]1O[C@H](O[C@H]2[C@H](O)[C@@H](O)C([18F])O[C@@H]2CO)[C@H](O)[C@@H](O)[C@@H]1O (stereo partly drawn) [1-[^18F]-fluoromaltose, 4-O-(α-D-glucopyranosyl)-1-deoxy-1-[^18F]-fluoro-D-glucopyranoside]
stability in vivo (de-fluorination) [2]: not stable in vivo and very fast de-fluorinated

percentage intact 6-[18F]fluoromaltose ([3]; 1 h): ~96% | percentage intact 6-[18F]fluoromaltose ([3]; 2 h): ~65%
Compound: OC[C@H]1O[C@H](O[C@H]2[C@H](O)[C@@H](O)C(O)O[C@@H]2C[18F])[C@H](O)[C@@H](O)[C@@H]1O (stereo partly drawn) [6-[^18F]-fluoromaltose, 4-O-(α-D-glucopyranosyl)-6-deoxy-6-[^18F]-fluoro-D-glucopyranoside]
uptake by E. Coli (E-.Coli (ATCC33456) [4]): take up | uptake by E. Coli (E-.Coli (ATCC33456) [4]; listed as [^18F]-6-fluoromaltose): time dependent | uptake by mammalian cell line (EL4) [5]: minimal

Compound: OC[C@H]1O[C@H](O[C@H]2[C@H](O)[C@@H](O)C(O)O[C@@H]2CO)[C@H](O)[C@@H](O)[C@@H]1O (mixture of isomers) [maltose]
blocking of 18F-fluoromaltose uptake in E. Coli (E-.Coli (ATCC33456) [1]): completely blocked | blocking of [18F]-6-fluoromaltose uptake in E. Coli (E-.Coli (ATCC33456) [1]; p<0.0003): 98% | blocking of 3H-maltose uptake in E. Coli (Escherichia coli): completely blocked; also recorded: effectively compete
